Laboratory results: patent EP4417190A1, “CYCLIC PEPTIDES WITH ANTI-AGING EFFICACY” (Lipotrue, S.L., priority 2023, dated 2024)

Columns and labels:
[1] = MTT assay, toxicity on HDFa cells; type: cell-based; settings: human, normalized to non-treated cells, read-out: Cell viability
Description: (§1) Toxicity of cycled peptides A and B was analyzed on human dermal fibroblasts (HDFa) and adult human epidermal keratinocytes HEKa cells by MTT assay. A stock solution of the peptide was prepared in distilled water at 25 mg/mL. This stock solution was further diluted to obtain the final working concentrations (0.001, 0.005, 0.01, 0.05, 0.1 and 0.5 mg/mL) in the corresponding culture medium. Untreated cells were used as negative control samples (Basal).
(§2) Briefly, HEKa and HDFa cells were seeded in 96-well plates at a concentration of 1×10^5 cells/mL in a final volume of 200 µL of medium (20,000 cells/well). HEKa cells were incubated in Dermal Cell Basal Medium supplemented with the Keratinocytes Growth Kit; and HDFa cells were cultured in Medium 106 supplemented with 2% of LSGS. Cells were incubated at 37°C, 5% CO2 and saturated humidity.
(§3) After 24 h of incubation, cells were treated with different concentrations of each peptide (0.001, 0.005, 0.01, 0.05, 0.1 and 0.5 mg/mL) in triplicates, for MTT evaluation. After 24 h of treatment with the peptide, medium was completely removed, and 100 µL of 0.5 mg/mL MTT solution in supplemented medium were added to each well and cells were incubated at 37°C for 3 h. After incubating with MTT, the medium of each well was aspirated and 150 µL of DMSO were added in order to solubilise the formazan crystals formed. The plates were placed on a shaker for 5 minutes for complete solubilisation of the crystals and then the absorbance at 570 nm of each well was determined, using the microplate reader Multiskan FC, which is directly proportional to the number of living cells in culture.
(§4) Absorbance values were normalized using the data obtained for non-treated cells (control), obtaining the % of viability shown in Tables 1 and 2. Each condition was performed in triplicate (n=3) in 3 independent experiments (N=3).
(§5) Concentrations of peptide for which viability is above 80% are considered safe for efficacy testing. On the contrary, concentrations for which viability goes below 80% are considered potentially toxic and are not used for efficacy testing purposes. Table 1: Toxicity of cycled peptides on HDFa cells.

[2] = MTT assay, toxicity on HEKa cells; type: cell-based; settings: human, normalized to non-treated cells, read-out: Cell viability
Description: as §1, §2, §3, §4, §5

TGFBR3 [3] = experiment: RT-qPCR expression of aging-related gene TGFBR3 in HEKa; type: cell-based, human; settings: 0.01 mg/mL, 24 h
Description: (§7) Then, cells were lysed, and RNA was extracted (RNeasy mini kit, Qiagen). Purified RNAs were retro-transcribed (High-capacity cDNA reverse transcription kit, Applied Biosystems). RT-qPCR was performed with the panel of TaqMan assay probes (Thermo Fisher Scientific) using StepOne plus Real time PCR instrument. […] The obtained data were analyzed using the ΔΔCt method, which provides the target gene expression values as fold changes in the treated sample compared with an untreated basal sample. Both samples were normalized with the relative expression of the housekeeping gene GAPDH.

FN = experiment: RT-qPCR expression of aging-related gene FN in HEKa; type: cell-based, human; settings: 0.01 mg/mL, 24 h
Description: as §7

ITGB1 = experiment: RT-qPCR expression of aging-related gene ITGB1 in HEKa; type: cell-based, human; settings: 0.01 mg/mL, 24 h
Description: as §7

ITGA5 = experiment: RT-qPCR expression of aging-related gene ITGA5 in HDFa; type: cell-based, human; settings: 0.05 mg/mL, 6 h
Description: as §7

TGFBR3 [4] = experiment: RT-qPCR expression of aging-related gene TGFBR3 in HDFa; type: cell-based, human; settings: 0.05 mg/mL, 6 h
Description: as §7

[5] = test system: COL3A1, COL5A1, COL6A1, COL7A1, COL1A1 and COL4A1; experiment: qPCR expression of collagen genes in HDFa; type: cell-based, human; settings: 6 hours, 0.001 mg/mL (COL3A1, COL5A1, COL6A1, COL7A1) or 0.1 mg/mL (COL1A1, COL4A1), compared with linear form (Figure 6A, 6B)
Description: (§6) HDFa cells were seeded in duplicate (n=2) in 12-well plates at a concentration of 200.000 cells/well in 106 Medium supplemented with 2% LSGS. Then, cells were incubated at 37 °C in a humidified atmosphere with 5% CO2. Next, cells were treated with cycled peptide B at different non-toxic concentrations for 6 or 24 hours. Untreated cells were used as basal control. Cells were then lysed, and replicates were pooled together for RNA extraction using Qiagen RNeasy Mini kit following manufacturer's instructions. Purified RNAs was then quantified by nanodrop, adjusted in concentration and processed for retrotranscription to cDNA using a commercially available kit (High-Capacity cDNA Reverse Transcription kit - Thermofisher Scientific, USA). Resulting cDNA was used to perform a RTqPCR using Taqman technology, and a panel of probes designed to target different type of collagens and their respective matrix metalloproteinases.
The expression of collagen genes in HDFa cells was measured by qPCR.

MMP3 and MMP1 = experiment: qPCR expression of metalloproteases in HDFa; type: cell-based, human; settings: 24 hours, 0.01 mg/mL, compared with linear form (Figure 6C)
Description: as §6
Metalloproteases (MMP) are enzymes responsible of extracellular matrix degradation, also important in skin aging. The expression of MMP genes in HDFa cells was measured by qPCR after 24 hours of treatment with 0.01 mg/mL of peptide B and its linear form.

CALR = experiment: RT-qPCR expression of CALR gene in HEKa; settings: 0.01 mg/mL
Description: HEKa cells were incubated in the presence of 0.01 mg/mL cycled peptide B for 24 hours and HDFa cells were treated with 0.05 mg/mL of cycled peptide B for 6 h. Then, cells were lysed, and RNA was extracted (RNeasy mini kit, Qiagen). Purified RNAs were retro-transcribed (High-capacity cDNA reverse transcription kit, Applied Biosystems). RT-qPCR was performed with the panel of TaqMan assay probes (Thermo Fisher Scientific) using StepOne plus Real time PCR instrument. […] The obtained data were analyzed using the ΔΔCt method, which provides the target gene expression values as fold changes in the treated sample compared with an untreated basal sample. Both samples were normalized with the relative expression of the housekeeping gene GAPDH.
Additionally, expression of CALR after treatment with 0.01 mg/mL of cycled peptides A and B for 24 hours in HEKa cells was analyze by qPCR as described in example 3.

SMILES: CC(C)C[C@@H]1NC(=O)[C@H](C)NC(=O)[C@H](Cc2c[nH]cn2)NC(=O)[C@H](Cc2c[nH]c3ccccc23)NC(=O)[C@H](Cc2ccccc2)NC(=O)[C@H](CCCNC(=N)N)NC1=O [Peptide B, cyclo-Phe-Trp- His- Ala-Leu-Arg]
- viability at 24 h ([1]; 0.001 mg/mL peptide): 100%
- viability at 24 h ([1]; 0.005 mg/mL peptide): 99.8%
- viability at 24 h ([1]; 0.01 mg/mL peptide): 92.9%
- viability at 24 h ([1]; 0.05 mg/mL peptide): 91.9%
- viability at 24 h ([1]; 0.1 mg/mL peptide): 88.2%
- viability at 24 h ([1]; 0.5 mg/mL peptide): 73.7%
- viability at 24 h ([2]; 0.001 mg/mL peptide): 102%
- viability at 24 h ([2]; 0.005 mg/mL peptide): 103%
- viability at 24 h ([2]; 0.01 mg/mL peptide): 107%
- viability at 24 h ([2]; 0.05 mg/mL peptide): 91.4%
- viability at 24 h ([2]; 0.1 mg/mL peptide): 85.8%
- viability at 24 h ([2]; 0.5 mg/mL peptide): 61.8%
- Fold change vs. Basal (TGFBR3 [3]): 1.23
- Mean normalized expression (TGFBR3 [3]; normalized to GAPDH): 2.54E-02
- Fold change vs. Basal (FN): 1.58
- Mean normalized expression (FN; normalized to GAPDH): 3.28E-01
- Fold change vs. Basal (ITGB1): 1.65
- Mean normalized expression (ITGB1; normalized to GAPDH): 7.16E-01
- Fold change vs. Basal (ITGA5): 1.31
- Mean normalized expression (ITGA5; normalized to GAPDH): 2.57E-01
- Fold change vs. Basal (TGFBR3 [4]): 1.74
- Mean normalized expression (TGFBR3 [4]; normalized to GAPDH): 8.00E-03
- expression of collagen genes [5]: improves the induction of collagen-related genes
- regulation of MMP3 and MMP1 expression (MMP3 and MMP1): reduces the expression of enzymes involved in collagen degradation
- CALR expression, Effect (CALR; 24 hours, qPCR (Table 5)): Upregulation
- CALR expression, Ratio (CALR; 24 hours, qPCR (Table 5), Basal = 1.00): 1.78
- Fold change vs. Basal (CALR; CALR, 24 h (Table 3)): 2.67
- Mean normalized expression (CALR; CALR, 24 h, normalized to GAPDH): 6.83E-01
